How the values were obtained:
[1] = test system: Human umbilical vein endothelial cells (HUVECs); experiment: Measurement of 50% lethal concentration for HUVEC (alamarBlue); type: cell-based; conditions: 72 hours incubation, 250 μM = maximum concentration dissolved in DMSO
Protocol: Human umbilical vein endothelial cells (HUVECs) (ATCC CRL-1730) were obtained from American Type Culture Collection and precultivated in an Endothelial Cell Growth Medium (CELL APPLICATIONS, USA) containing 10% bovine fetal serum supplemented with 1% Antibiotic-Antimycotic (GIBCO BRL, USA) under a 5% CO2 atmosphere at 37° C.
A Matrigel matrix (BD Biosciences, USA) was melted and kept at 4° C. on ice, and then, 50 μL of the matrix were transferred to each well of a 96-well tissue culture plate. The plate was incubated at 37° C. for at least one hour to solidify the matrix solution.
On the other hand, the astaxanthin monoester obtained in Preparation Example 1 was dissolved in dimethylsulfoxide (DMSO), and then diluted with distilled water to prepare stock test solutions in which the astaxanthin monoester was contained in 40 (v/v)% DMSO at 25000, 2500, 250, 25, and 2.5 μM, respectively. […]
After the incubation, 20 μL of a 90% alamarBlue reagent were added to individual wells, and incubated for an additional 6 hours. Then, the fluorescence intensity of each well was measured at an excitation wavelength of 530 nm and an emission wavelength of 590 nm using a Spectrafluor Plus plate reader to count the number of living cells. […] The 50% lethal concentration was calculated as the concentration at which the number of living cells was 50% of the number of cells at the start of the experiment.

[2] = test system: obese model mice fed with a high-fat diet; experiment: Effect of astaxanthin monoester on obese model mice fed with a high-fat diet; type: in vivo, male C57BL/6J strain mice
Protocol: Astaxanthin was administered to obese model mice fed with a high-fat diet, and the change in body weight, the amount of subcutaneous fat (in the inguinal region and the back), the amount of visceral fat (around the reproductive organs and around the kidney), the liver weight, the blood glucose level, and the insulin concentration in blood were examined in the following manner.
Four week old male C57BL/6J strain mice (SPF) purchased from CHARLES RIVER LABORATORIES JAPAN, INC. were used. The mice were preliminarily fed for 8 days and used for the test after they reached the age of 5 weeks. The mice were divided into three groups of 8 each, that is, a normal diet group, a high-fat diet group, and a high-fat diet+astaxanthin (AX) group, so that the average body weight was equal among the groups.
During the preliminary feeding period, the mice were given an ordinary powder diet (MF, Oriental Yeast Co., Ltd.), and during the test period of 16 weeks, the mice were given the ordinary powder diet or a high-fat diet having the composition shown in Table 2 below. As to drinking water, the mice were allowed to drink freely sterile distilled water from a water supply bottle.
The astaxanthin monoester prepared in Preparation Example 1 was dissolved in an olive oil (Wako Pure Chemical Industries, Ltd.) to prepare a solution containing astaxanthin monoester at a concentration of 60 mg/mL. This solution was administered to the high-fat diet+AX group and the olive oil to the other two groups in a volume of 0.05 mL/10 g body weight every day for 16 weeks from the start of the test (at the age of 5 weeks) to the age of 21 weeks, using a sonde for oral administration in the mice.
During the test period, the body weight was measured once a week using a scale. At the end of the test, the body weight was measured, and thereafter, the mice were fasted overnight and the blood glucose level was measured in the tail of each mouse using OneTouch Ultra™ (manufactured by Life Scan Inc., a blood glucose level measuring device). Next, blood was collected from the heart using a heparinized syringe with heparin Na. Immediately after the collection of blood, blood plasma was separated by centrifugation, and the obtained blood plasma was cryopreserved at −80° C. Then, the liver, the adipose tissue in the inguinal region, the adipose tissue around the reproductive organs, the adipose tissue around the kidney, and the adipose tissue in the back were collected and the weights thereof were measured. Thereafter, the insulin concentration in blood was measured with a commercially available kit (Mouse Insulin ELISA KIT (TMB) (AKRIN-011T): Shibayagi Co., Ltd.), using the blood plasma collected at the end of the test.
The different types of data obtained were expressed as average values±standard errors for each group. In order to test for statistically significant differences between the high-fat diet group and the high-fat diet+AX group or the normal diet group, a multiple comparison test (ANOVA) was performed using an analysis software (Stat View, Abacus Inc., USA), and a comparison between the groups was performed using Fisher's PLSD multiple comparison test. Differences were considered statistically significant when p<0.05.

[3] = high-fat diet+AX vs high-fat diet, end of 16-week test, FIG. 2
[4] = high-fat diet+AX vs high-fat diet, end of 16-week test, FIG. 3

Substance: astaxanthin monoester
- LC50 [1]: ≥ 250 µM
- change over time in mean body weight ([2]; high-fat diet+AX group vs high-fat diet group, oral, every day for 16 weeks, 60 mg/mL in olive oil, 0.05 mL/10 g body weight, FIG. 1): the increase in body weight tended to be suppressed
- mean weight of subcutaneous fat [2, 3]: the accumulation of fat was significantly suppressed
- mean weight of visceral fat [2, 3]: the accumulation of fat was significantly suppressed
- proportion of the liver weight to body weight [2, 4]: the proportion approached that in the case of the normal diet
- proportions of the mean weights of the adipose tissues to mean body weight [2, 4]: the increase was significantly suppressed
- blood glucose level ([2]; high-fat diet+AX vs high-fat diet, fasted overnight, end of 16-week test, FIG. 5): maintained at the same level as that of the normal diet group
- insulin concentration in blood ([2]; high-fat diet+AX vs high-fat diet, plasma at end of 16-week test, FIG. 4): the insulin concentration was considerably suppressed

Reference: patent US20070135521A1, “Agent for Preventing Metabolic Syndrome” (YAMAHA HATSUDOKI KABUSHIKI KAISHA, priority 2005, published 2007)
